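Cells were grown in 96-well plates and exposed to each compound for 48 hours at five concentrations; endpoints were interpolated linearly between bracketing concentrations, or set to the highest concentration if not reached. The concentration for 50% growth inhibition is given as GI50. The concentration for full growth arrest is given as TGI.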
Key:
Assay in all cases: growth of human tumour cells (NCI), 48 h
786-0 renal = tested on: 786-0 renal
A549 NSCLC = tested on: A549 NSCLC
ACHN renal = tested on: ACHN renal
BT-549 breast = tested on: BT-549 breast
CAKI-1 renal = tested on: CAKI-1 renal
COLO 205 colon = tested on: COLO 205 colon
DU-145 prostate = tested on: DU-145 prostate
EKVX NSCLC = tested on: EKVX NSCLC
HCC-2998 colon = tested on: HCC-2998 colon
HCT-116 colon = tested on: HCT-116 colon
HCT-15 colon = tested on: HCT-15 colon
HL-60(TB) leukemia = tested on: HL-60(TB) leukemia
HOP-62 NSCLC = tested on: HOP-62 NSCLC
HOP-92 NSCLC = tested on: HOP-92 NSCLC
HS 578T breast = tested on: HS 578T breast
IGROV1 ovarian = tested on: IGROV1 ovarian
K-562 leukemia = tested on: K-562 leukemia
KM12 colon = tested on: KM12 colon
LOX IMVI melanoma = tested on: LOX IMVI melanoma
M14 melanoma = tested on: M14 melanoma
MCF7 breast = tested on: MCF7 breast
MDA-MB-231 breast = tested on: MDA-MB-231 breast
MDA-MB-435 = tested on: MDA-MB-435
NCI-H23 lung = tested on: NCI-H23 lung
NCI-H460 lung = tested on: NCI-H460 lung
NCI-H522 lung = tested on: NCI-H522 lung
NCI/ADR-RES ovarian = tested on: NCI/ADR-RES ovarian
OVCAR-3 ovarian = tested on: OVCAR-3 ovarian
OVCAR-4 ovarian = tested on: OVCAR-4 ovarian
OVCAR-5 ovarian = tested on: OVCAR-5 ovarian
OVCAR-8 ovarian = tested on: OVCAR-8 ovarian
PC-3 prostate = tested on: PC-3 prostate
RPMI-8226 leukemia = tested on: RPMI-8226 leukemia
RXF 393 renal = tested on: RXF 393 renal
SF-268 CNS = tested on: SF-268 CNS
SF-295 CNS = tested on: SF-295 CNS
SF-539 CNS = tested on: SF-539 CNS
SK-MEL-2 melanoma = tested on: SK-MEL-2 melanoma
SK-MEL-28 melanoma = tested on: SK-MEL-28 melanoma
SK-MEL-5 melanoma = tested on: SK-MEL-5 melanoma
SN12C renal = tested on: SN12C renal
SNB-19 CNS = tested on: SNB-19 CNS
SR leukemia = tested on: SR leukemia
SW-620 colon = tested on: SW-620 colon
T-47D breast = tested on: T-47D breast
TK-10 renal = tested on: TK-10 renal
U251 CNS = tested on: U251 CNS
UACC-257 melanoma = tested on: UACC-257 melanoma
UACC-62 melanoma = tested on: UACC-62 melanoma
UO-31 renal = tested on: UO-31 renal
CCRF-CEM leukemia = tested on: CCRF-CEM leukemia
HT29 colon = tested on: HT29 colon
MALME-3M melanoma = tested on: MALME-3M melanoma
MOLT-4 leukemia = tested on: MOLT-4 leukemia
SK-OV-3 ovarian = tested on: SK-OV-3 ovarian
SNB-75 CNS = tested on: SNB-75 CNS

Which results are given for `CCC(CC)c1nc(Nc2cccc(OC)c2)c2ccccc2n1`?
GI50 (786-0 renal): 11 µM; TGI (786-0 renal): 18.2 µM; GI50 (A549 NSCLC): 7.11 µM; TGI (A549 NSCLC): 13.6 µM; GI50 (ACHN renal): 7.71 µM; TGI (ACHN renal): 14.4 µM; GI50 (BT-549 breast): 7.19 µM; TGI (BT-549 breast): 13.7 µM; GI50 (CAKI-1 renal): 5.9 µM; TGI (CAKI-1 renal): 12 µM; GI50 (COLO 205 colon): 11 µM; TGI (COLO 205 colon): 18.3 µM; GI50 (DU-145 prostate): 6.48 µM; TGI (DU-145 prostate): 12.8 µM; GI50 (EKVX NSCLC): 8.05 µM; TGI (EKVX NSCLC): 14.8 µM; GI50 (HCC-2998 colon): 7.68 µM; TGI (HCC-2998 colon): 14.3 µM; GI50 (HCT-116 colon): 8.31 µM; TGI (HCT-116 colon): 15.1 µM; GI50 (HCT-15 colon): 7.45 µM; TGI (HCT-15 colon): 14.1 µM; GI50 (HL-60(TB) leukemia): 12 µM; TGI (HL-60(TB) leukemia): > 50 µM; GI50 (HOP-62 NSCLC): 8.06 µM; TGI (HOP-62 NSCLC): 14.8 µM; GI50 (HOP-92 NSCLC): 2.86 µM; TGI (HOP-92 NSCLC): 9.98 µM; GI50 (HS 578T breast): 7.71 µM; TGI (HS 578T breast): 15.4 µM; GI50 (IGROV1 ovarian): 10.2 µM; TGI (IGROV1 ovarian): 19.2 µM; GI50 (K-562 leukemia): 4.3 µM; TGI (K-562 leukemia): > 50 µM; GI50 (KM12 colon): 6.11 µM; TGI (KM12 colon): 12.3 µM; GI50 (LOX IMVI melanoma): 6.43 µM; TGI (LOX IMVI melanoma): 12.7 µM; GI50 (M14 melanoma): 11.3 µM; TGI (M14 melanoma): 18.5 µM; GI50 (MCF7 breast): 10.6 µM; TGI (MCF7 breast): > 50 µM; GI50 (MDA-MB-231 breast): 6.57 µM; TGI (MDA-MB-231 breast): 12.9 µM; GI50 (MDA-MB-435): 6.92 µM; TGI (MDA-MB-435): 13.4 µM; GI50 (NCI-H23 lung): 8.27 µM; TGI (NCI-H23 lung): 15.1 µM; GI50 (NCI-H460 lung): 12.9 µM; TGI (NCI-H460 lung): 38.4 µM; GI50 (NCI-H522 lung): 7.51 µM; TGI (NCI-H522 lung): 15.3 µM; GI50 (NCI/ADR-RES ovarian): 10.3 µM; TGI (NCI/ADR-RES ovarian): 17.4 µM; GI50 (OVCAR-3 ovarian): 5.9 µM; TGI (OVCAR-3 ovarian): 12 µM; GI50 (OVCAR-4 ovarian): 6.95 µM; TGI (OVCAR-4 ovarian): 13.6 µM; GI50 (OVCAR-5 ovarian): 9.68 µM; TGI (OVCAR-5 ovarian): 16.7 µM; GI50 (OVCAR-8 ovarian): 8.85 µM; TGI (OVCAR-8 ovarian): 17.9 µM; GI50 (PC-3 prostate): 6.86 µM; TGI (PC-3 prostate): 13.3 µM; GI50 (RPMI-8226 leukemia): 5.41 µM; TGI (RPMI-8226 leukemia): 11.3 µM; GI50 (RXF 393 renal): 7.29 µM; TGI (RXF 393 renal): 14.7 µM; GI50 (SF-268 CNS): 11.5 µM; TGI (SF-268 CNS): 29.5 µM; GI50 (SF-295 CNS): 6.55 µM; TGI (SF-295 CNS): 12.9 µM; GI50 (SF-539 CNS): 8.29 µM; TGI (SF-539 CNS): 15.1 µM; GI50 (SK-MEL-2 melanoma): 7.11 µM; TGI (SK-MEL-2 melanoma): 15.2 µM; GI50 (SK-MEL-28 melanoma): 6.72 µM; TGI (SK-MEL-28 melanoma): 13.1 µM; GI50 (SK-MEL-5 melanoma): 6.07 µM; TGI (SK-MEL-5 melanoma): 12.3 µM; GI50 (SN12C renal): 7.35 µM; TGI (SN12C renal): 13.9 µM; GI50 (SNB-19 CNS): 6.86 µM; TGI (SNB-19 CNS): 13.3 µM; GI50 (SR leukemia): 9.81 µM; TGI (SR leukemia): 24.2 µM; GI50 (SW-620 colon): 7.47 µM; TGI (SW-620 colon): 14.1 µM; GI50 (T-47D breast): 0.005 µM; TGI (T-47D breast): 0.234 µM; GI50 (TK-10 renal): 10.7 µM; TGI (TK-10 renal): 17.9 µM; GI50 (U251 CNS): 7.98 µM; TGI (U251 CNS): 14.7 µM; GI50 (UACC-257 melanoma): 8.06 µM; TGI (UACC-257 melanoma): 14.8 µM; GI50 (UACC-62 melanoma): 7.28 µM; TGI (UACC-62 melanoma): 13.8 µM; GI50 (UO-31 renal): 6.95 µM; TGI (UO-31 renal): 13.4 µM

How did the TGI (786-0 renal) turn out when `[N-]=[N+]=Nc1c(Cc2ccccc2)c(=O)oc2ccccc12` was run?
The TGI was > 100 µM.

What about the TGI (A549 NSCLC) of the same compound?
Its TGI is > 100 µM.

What about the TGI (ACHN renal) of the same compound?
The TGI was > 100 µM.

And the TGI (BT-549 breast)?
The TGI was 46.9 µM.

What about the TGI (CAKI-1 renal) of the same compound?
Its TGI is > 100 µM.

What about the TGI (CCRF-CEM leukemia) of the same compound?
The TGI was 45.8 µM.

What about the TGI (COLO 205 colon) of the same compound?
The TGI was 98.4 µM.

What about the TGI (DU-145 prostate) of the same compound?
Its TGI is > 100 µM.

What about the TGI (HCC-2998 colon) of the same compound?
Its TGI is 62.1 µM.

And the TGI (HCT-15 colon)?
The TGI was > 100 µM.

What about the TGI (HL-60(TB) leukemia) of the same compound?
The TGI was > 100 µM.

And the TGI (HOP-62 NSCLC)?
The TGI was 50.3 µM.

What about the TGI (HS 578T breast) of the same compound?
Its TGI is 61.3 µM.

And the TGI (HT29 colon)?
The TGI was 54.5 µM.

What about the TGI (IGROV1 ovarian) of the same compound?
Its TGI is 70.6 µM.

What about the TGI (K-562 leukemia) of the same compound?
Its TGI is 86.9 µM.

And the TGI (LOX IMVI melanoma)?
The TGI was 28.4 µM.

And the TGI (M14 melanoma)?
Its TGI is 62.3 µM.

And the TGI (MALME-3M melanoma)?
The TGI was > 100 µM.

And the TGI (MCF7 breast)?
The TGI was 70.9 µM.

And the TGI (MDA-MB-231 breast)?
The TGI was > 100 µM.

And the TGI (MDA-MB-435)?
Its TGI is 58.5 µM.

And the TGI (MOLT-4 leukemia)?
The TGI was 26.2 µM.

What about the TGI (NCI-H23 lung) of the same compound?
The TGI was 78.1 µM.

And the TGI (NCI-H460 lung)?
The TGI was 57.3 µM.

What about the TGI (NCI/ADR-RES ovarian) of the same compound?
Its TGI is > 100 µM.

What about the TGI (OVCAR-3 ovarian) of the same compound?
The TGI was > 100 µM.

What about the TGI (OVCAR-4 ovarian) of the same compound?
The TGI was > 100 µM.

And the TGI (OVCAR-5 ovarian)?
The TGI was > 100 µM.

And the TGI (PC-3 prostate)?
Its TGI is > 100 µM.

And the TGI (RPMI-8226 leukemia)?
Its TGI is > 100 µM.

What about the TGI (RXF 393 renal) of the same compound?
Its TGI is 38 µM.

What about the TGI (SF-268 CNS) of the same compound?
The TGI was 62.1 µM.

What about the TGI (SF-295 CNS) of the same compound?
The TGI was > 100 µM.

What about the TGI (SK-MEL-2 melanoma) of the same compound?
The TGI was 78.8 µM.

And the TGI (SK-MEL-5 melanoma)?
Its TGI is 20.2 µM.

What about the TGI (SK-OV-3 ovarian) of the same compound?
Its TGI is > 100 µM.

And the TGI (SNB-19 CNS)?
Its TGI is > 100 µM.

And the TGI (SNB-75 CNS)?
The TGI was > 100 µM.

What about the TGI (SR leukemia) of the same compound?
The TGI was > 100 µM.

What about the TGI (SW-620 colon) of the same compound?
Its TGI is 39.7 µM.

And the TGI (T-47D breast)?
Its TGI is > 100 µM.

What about the TGI (TK-10 renal) of the same compound?
Its TGI is 60.4 µM.

What about the TGI (U251 CNS) of the same compound?
The TGI was 69.7 µM.

What about the TGI (UACC-257 melanoma) of the same compound?
Its TGI is > 100 µM.

And the TGI (UO-31 renal)?
The TGI was > 100 µM.
